Consider 8 molecules from PubChem BioAssay AID1259407 (Chemical Carcinogenesis Research Information System (CCRIS), 2018).

SMILES strings stand for the structures. The source made the active and inactive calls. How the calls were made is not given here.

This data set concerns CCRIS mutagenicity, Ames/micronucleus/aberration tests. The data set can be described thus: CCRIS mutagenicity studies.
The mark [1] stands for this setting: Test System: UDS RODENT HEPATOCYTES, Strain/Indicator: THY INCORP (NON-S-PHASE), Metabolic Activation: NONE, Method: AUTORADIOGRAPHY
The mark [2] stands for this setting: Test System: AMES SALMONELLA TYPHIMURIUM, Strain/Indicator: TA100, Metabolic Activation: NONE, Method: PREINCUBATION
Setting [3] is: Test System: AMES SALMONELLA TYPHIMURIUM, Strain/Indicator: TA1538, Metabolic Activation: NONE, Method: STANDARD PLATE.
Setting [4] is: Test System: AMES SALMONELLA TYPHIMURIUM, Strain/Indicator: TA1538, Metabolic Activation: RAT, LIVER, S-9, AROCLOR 1254, Method: STANDARD PLATE.
Setting [5] is: Test System: AMES SALMONELLA TYPHIMURIUM, Strain/Indicator: TA98, Metabolic Activation: NONE, Method: PREINCUBATION

As to `Nc1cc(N)cc(C(=O)O)c1`, the mutagenic call (End Point: IN VITRO CHROMOSOMAL ABERRATIONS, Test System: CHL CELLS, Metabolic Activation: RAT, LIVER, S-9, SODIUM PHENOBARBITAL AND 5,6-BENZOFLAVONE) is “inactive; negative”; the mutagenic call (End Point: IN VITRO MICRONUCLEUS, Test System: CHL/IU CELLS, Metabolic Activation: RAT, LIVER, S-9, PHENOBARBITAL AND 5,6-BENZOFLAVONE) was “inactive; negative”; the mutagenic call under setting [1] is “active; positive”.
As to `CNc1ccc(Cl)cc1`, the mutagenic call under setting [1] was “active; positive”.
With `CN(C)c1nc(N(C)C)nc(N(C)C)n1`, the mutagenic call was “inactive; negative” under setting [2]; “inactive; negative” (Test System: AMES SALMONELLA TYPHIMURIUM, Strain/Indicator: TA100, Metabolic Activation: RAT, LIVER, S-9, AROCLOR 1254 (4 OR 10%), Method: PREINCUBATION); “inactive; negative” (Test System: AMES SALMONELLA TYPHIMURIUM, Strain/Indicator: TA100, Metabolic Activation: RAT, LIVER, S-9, AROCLOR 1254 (10%), Method: STANDARD PLATE); “active; positive” (Test System: AMES SALMONELLA TYPHIMURIUM, Strain/Indicator: TA100, Metabolic Activation: RAT, LIVER, S-9, AROCLOR 1254 (30%), Method: PREINCUBATION).
In the case of `Nc1ccc(-c2ccc(-c3ccc(-c4ccc(N)cc4)cc3)cc2)cc1`, the mutagenic call is, setting by setting: under setting [3], “inactive; negative”; under setting [4], “inactive; negative”.
`CCn1c2ccccc2c2cc(N)ccc21`: the mutagenic call reads like this: (Test System: AMES SALMONELLA TYPHIMURIUM, Strain/Indicator: TA98, Metabolic Activation: HAMSTER, LIVER, S-9, AROCLOR 1254, Method: PREINCUBATION) “active; positive”; under setting [5], “inactive; negative”; (Test System: AMES SALMONELLA TYPHIMURIUM, Strain/Indicator: TA98, Metabolic Activation: RAT, LIVER, S-9, AROCLOR 1254, Method: PREINCUBATION) “active; positive”; (Test System: AMES SALMONELLA TYPHIMURIUM, Strain/Indicator: TA100, Metabolic Activation: HAMSTER, LIVER, S-9, AROCLOR 1254, Method: PREINCUBATION) “active; positive”; under setting [2], “inactive; negative”; (Test System: AMES SALMONELLA TYPHIMURIUM, Strain/Indicator: TA100, Metabolic Activation: RAT, LIVER, S-9, AROCLOR 1254, Method: PREINCUBATION) “active; positive”. Further, the mutagenic call is, setting by setting: (Test System: AMES SALMONELLA TYPHIMURIUM, Strain/Indicator: TA1535, Metabolic Activation: HAMSTER, LIVER, S-9, AROCLOR 1254, Method: PREINCUBATION) “inactive; negative”; (Test System: AMES SALMONELLA TYPHIMURIUM, Strain/Indicator: TA1535, Metabolic Activation: NONE, Method: PREINCUBATION) “inactive; negative”; (Test System: AMES SALMONELLA TYPHIMURIUM, Strain/Indicator: TA1535, Metabolic Activation: RAT, LIVER, S-9, AROCLOR 1254, Method: PREINCUBATION) “inactive; negative”; (Test System: AMES SALMONELLA TYPHIMURIUM, Strain/Indicator: TA1537, Metabolic Activation: HAMSTER, LIVER, S-9, AROCLOR 1254, Method: PREINCUBATION) “active; positive”; (Test System: AMES SALMONELLA TYPHIMURIUM, Strain/Indicator: TA1537, Metabolic Activation: NONE, Method: PREINCUBATION) “inactive; negative”; (Test System: AMES SALMONELLA TYPHIMURIUM, Strain/Indicator: TA1537, Metabolic Activation: RAT, LIVER, S-9, AROCLOR 1254, Method: PREINCUBATION) “active; positive”.
For `[O-][n+]1c2ccccc2c2ccc3cccc4ccc1c2c34`, the mutagenic call runs as follows: (Test System: AMES SALMONELLA TYPHIMURIUM, Strain/Indicator: TA98, Metabolic Activation: NONE) “inactive; negative”; (Test System: AMES SALMONELLA TYPHIMURIUM, Strain/Indicator: TA98, Metabolic Activation: S-9) “active; positive”; (Test System: AMES SALMONELLA TYPHIMURIUM, Strain/Indicator: TA100, Metabolic Activation: NONE) “inactive; negative”; (Test System: AMES SALMONELLA TYPHIMURIUM, Strain/Indicator: TA100, Metabolic Activation: S-9) “active; positive”.
In the case of `Cc1cccc2ccc([N+](=O)[O-])cc12`, the mutagenic call under setting [5] is “active; positive”.
Consider `CCCCCCCCSCn1cc[n+](C)c1`, for which the mutagenic call was “inactive; negative” (Test System: AMES SALMONELLA TYPHIMURIUM, Strain/Indicator: TA98, Metabolic Activation: NONE, Method: STANDARD PLATE); “inactive; negative” (Test System: AMES SALMONELLA TYPHIMURIUM, Strain/Indicator: TA98, Metabolic Activation: RAT, LIVER, S-9, AROCLOR 1254, Method: STANDARD PLATE); “inactive; negative” (Test System: AMES SALMONELLA TYPHIMURIUM, Strain/Indicator: TA100, Metabolic Activation: NONE, Method: STANDARD PLATE); “inactive; negative” (Test System: AMES SALMONELLA TYPHIMURIUM, Strain/Indicator: TA100, Metabolic Activation: RAT, LIVER, S-9, AROCLOR 1254, Method: STANDARD PLATE); “inactive; negative” (Test System: AMES SALMONELLA TYPHIMURIUM, Strain/Indicator: TA1535, Metabolic Activation: NONE, Method: STANDARD PLATE); “inactive; negative” (Test System: AMES SALMONELLA TYPHIMURIUM, Strain/Indicator: TA1535, Metabolic Activation: RAT, LIVER, S-9, AROCLOR 1254, Method: STANDARD PLATE). Besides, the mutagenic call (Test System: AMES SALMONELLA TYPHIMURIUM, Strain/Indicator: TA1537, Metabolic Activation: NONE, Method: STANDARD PLATE) is “inactive; negative”; the mutagenic call (Test System: AMES SALMONELLA TYPHIMURIUM, Strain/Indicator: TA1537, Metabolic Activation: RAT, LIVER, S-9, AROCLOR 1254, Method: STANDARD PLATE) is “inactive; negative”; the mutagenic call under setting [3] was “inactive; negative”; the mutagenic call under setting [4] is “inactive; negative”.
